In US20230128114A1, “METHODS AND COMPOSITIONS FOR TREATING OR PREVENTING AN INFLAMMATORY CONDITION” (priority 2020, published 2023):

Columns and labels:
[1] = tested on: LPS-induced production of inflammatory cytokines; experiment: LPS-induced sepsis in mice: synergy analysis (relative inhibition of cytokine release, Excess over Bliss); assay type: in vivo, C57BL/6 mice; conditions: for IFN-γ, relative inhibition of cytokine release / IL-1β, relative inhibition of cytokine release / IL-6, relative inhibition of cytokine release / IL-12(p70), relative inhibition of cytokine release / TNF-α, relative inhibition of cytokine release: HCQ 100 mg/kg, alone or combined, observed
Protocol: Male C57BL/6 mice weighing 10-20 g were used. Vehicle and active agents (i.e., CBD and hydroxychloroquine) alone or in combination were administered intraperitoneally (IP) (Table 4) or orally (Table 5) at 1 hour before LPS (100 μg/100 μL/mouse) injected intravenously (IV). At 2 hours after LPS injection, blood was collected from all mice by cardiac puncture, sera processed and assayed for biomarkers using either the Th17-plex for IL-1β, IL-2, IL-10, IL-12 (p70), IFN-γ and TNF-α by Luminex, plus IL-6 and D-dimer by ELISA, or the 23-plex for IL-1α, IL-1β, IL-2, IL-3, IL-4, IL-5, IL-6, IL-9, IL-10, IL-12(p40), IL-12(p70), IL-13, IL-17A, Eotaxin, G-CSF, GM-CSF, IFN-γ, KC, MCP-1(MCAF), MIP-1α, MIP-1β, RANTES, and TNF-α by Luminex, plus IL-6 by ELISA. ANOVA followed by Dunnett's test was applied for comparison between vehicle and treatment groups. p<0.05 is considered significant.
For synergy analysis, data were baseline subtracted using the cytokine levels of sham treated mice (i.e., no LPS injection), before normalising the values for each cytokine relative to maximum values across the groups. The normalised values were used to calculate the relative inhibition where a value of 1 represents complete inhibition and a value of 0 represents no inhibition. Synergy was calculated using the statistical methods described elsewhere herein.
Drug synergy was determined using the Bliss Independence method where the predicted effect of the drug combination is calculated using the equation: […]

[2] = tested on: LPS-induced pulmonary inflammation; experiment: LPS-induced pulmonary inflammation: BALF white blood cell count; assay type: in vivo, C57BL/B6 mice; conditions: CBD 10 mg/kg, HCQ 2.5 mg/kg, alone or combined
Protocol: (§1) Male C57BL/B6 mice weighing 10-20 g were used. Vehicle and active agents (i.e., CBD and hydroxychloroquine) alone or in combination were administered intraperitoneally (IP) at 1 hour before LPS (˜80 mg/kg) was administered intratracheally. 24 hours after LPS injection, mice were anaesthetized with pentoparbital and 0.5 mL of PBS was administered twice through a tracheal cannula after which approximately 0.6 mL of broncheoalveolar lavage fluid (BALF) was obtained. The BALF was assayed for IL-1β, TNF-α, MCP-1(MCAF) and CXCL-1 by Luminex. ANOVA followed by Dunnett's test was applied for comparison between vehicle and treatment groups. p<0.05 was considered significant.
BALF collected from mice were also analysed for white blood cell (WBC) count using an automatic haematology analyser. Cell counts were normalised using sham treated mice, and analysed relative to the highest values across the groups (Table 27).

[3] = tested on: LPS-induced pulmonary inflammation; experiment: LPS-induced pulmonary inflammation: lung histopathology lesion score; assay type: in vivo, C57BL/B6 mice
Protocol: as §1
In a separate test group of animals with pulmonary inflammation induced as detailed above, lungs were harvested at termination (five lobes per lung) and fixed in 10% neutral buffered formalin for histopathology. Samples were sectioned at 4-6 μm and stained with hematoxylin and eosin (H&E) to examine inflammatory lesions as described by Shackleford et al. (2002, Toxicologic Pathology, 30(1): 93-96). Briefly, a score of 0 corresponds to not present, and a score of 5 indicates a severe/high number of lesions. Scores were averaged across lobes for each animal and then across animals for each treatment group.

TNBS-induced colitis = experiment: TNBS-induced colitis; assay type: in vivo, BALB/c mice; conditions: for Relative reduction in Colon to body weight ratio / Relative reduction in Total Colitis Index / Macroscopic damage score, relative reduction / Stool consistency score, relative reduction / MPO, relative reduction: HCQ 2.5 mg/kg, alone or combined; for Relative reduction in Total Colitis Index: histology of distal colon; for Macroscopic damage score, relative reduction / Stool consistency score, relative reduction / MPO, relative reduction: observed; for MPO, relative reduction: colon tissue
From the text: Male BALB/c were used as an in vivo model of colitis, induced by intracolonic administration of 2,4,6-trinitrobenzene sulfonic acid (TNBS) in 50% ethanol, as previously described by Antoniou et al. (2016, Annals of Medicine and Surgery, 11: 9-15). Briefly, the ethanol disrupts the intestinal barrier, permitting TNBS to interact with colon proteins. Interaction of TNBS with high-molecular weight proteins renders them immunogenic, leading to Th1 mediated inflammation, which is causative of symptoms include inconsistent stool formation and blood in the faeces.
Vehicle and active agents (i.e., CBD and hydroxychloroquine) alone or in combination were administered intraperitoneally (IP) once a day starting from Day 1 (i.e., 24 hours before TNBS) to Day 4, for a total of 4 consecutive days (Days 1-4). On the Day of TNBS challenge (i.e., Day 2), test articles and vehicle were given 2 hrs before TNBS.
Colon tissues were harvested in all animals at termination. Colon samples were taken at 0.5, 2, and 3.5 cm from the anus, fixed in formalin, and then embedded in paraffin blocks. Four-micrometer tissue sections were cut and stained with H&E for histological analysis in accordance with the method of Dieleman et al. (1998, Clinical Experimental Immunology, 114: 385-391). Histological criteria included: abnormalities of mucosal architecture, extent of inflammation, erosion or ulceration, epithelial regeneration, and the percentage involvement by the disease process. The scoring was based on the findings of the observers by examining three sections from each colon per animal. Total score for colitis (Total Colitis Index) were added, resulting in a combined histological score range from 0 to 60.
Other endpoint measures of stool consistency score (i.e., 0—normal stools, 1, soft but still formed stools, 2—very soft stools, 3—diarrhoea), faecal occult blood score (i.e., 0-negative hemoccult, 1—positive hemoccult, 2—blood traces in stool visible, 3—rectal bleeding), colon weight, colon macroscopic damage score (a composite of adhesions, strictures, ulcers/inflammations and wall thickness) and myeloperoxidase levels in the colon tissue were also assessed. The data from each of these endpoints was baseline subtracted using the equivalent measures from sham treated mice (i.e., no TNBS) and reduction in any measure calculated as a relative reduction. Synergy was calculated using the statistical methods described elsewhere herein.

[4] = CBD 10 mg/kg, HCQ 25 mg/kg, alone or combined, pulmonary lesion score
[5] = CBD 10 mg/kg alone, 1 = complete inhibition

CCN(CCO)CCCC(C)Nc1ccnc2cc(Cl)ccc12 (stereo not drawn) [HCQ]
IFN-γ, relative inhibition of cytokine release ([1]; CBD 10 mg/kg): 0.74
IL-1β, relative inhibition of cytokine release ([1]; CBD 10 mg/kg): 0.01
IL-6, relative inhibition of cytokine release ([1]; CBD 10 mg/kg): 0.22
IL-12(p70), relative inhibition of cytokine release ([1]; CBD 10 mg/kg): 0.72
TNF-α, relative inhibition of cytokine release ([1]; CBD 10 mg/kg): 0.55
IL-6, relative inhibition of cytokine release ([1]; CBD 25 mg/kg): 0.22
Relative inhibition of IFN-γ release in vivo ([1]; HCQ 25 mg/kg alone): 0.57
Relative inhibition of IL-12(p70) release in vivo ([1]; HCQ 25 mg/kg alone): 0.56
Relative inhibition of TNF-α release in vivo ([1]; HCQ 25 mg/kg alone): 0.33
Relative inhibition of IL-6 release in vivo ([1]; HCQ 25 mg/kg alone (Table 21)): 0.17
Relative inhibition of IL-6 release in vivo ([1]; HCQ 25 mg/kg alone (Table 23)): 0.17
Relative reduction in white blood cell counts: Neutrophil [2]: 0.10
Relative reduction in white blood cell counts: WBC [2]: 0.11
Relative reduction in lesion score [3, 4]: 0.37
Relative reduction in lesion score ([3]; HCQ 2.5 mg/kg): 0.21
Relative reduction in Colon to body weight ratio (TNBS-induced colitis; CBD 1 mg/kg): 0.287
Relative reduction in Total Colitis Index (TNBS-induced colitis; CBD 1 mg/kg): 0.27
Macroscopic damage score, relative reduction (TNBS-induced colitis; CBD 1 mg/kg): 0.05
Stool consistency score, relative reduction (TNBS-induced colitis; CBD 1 mg/kg): 0.00
MPO, relative reduction (TNBS-induced colitis; CBD 1 mg/kg): 0.00
Colon tissue histology (H&E, 100×), FIG. 3 (TNBS-induced colitis; hydroxychloroquine 2.5 mg/kg): mild abnormality, cyctic dilation and aberrant crypts

C=C(C)[C@@H]1CCC(C)=C[C@H]1c1c(O)cc(CCCCC)cc1O [CBD, cannabidiol]
Relative inhibition of IFN-γ release in vivo [1, 5]: 0.00
Relative inhibition of IL-6 release in vivo [1, 5]: 0.14
Relative inhibition of IL-12(p70) release in vivo [1, 5]: 0.00
Relative inhibition of TNF-α release in vivo [1, 5]: 0.00
IFN-γ, relative inhibition of cytokine release ([1]; CBD 10 mg/kg): 0.00
IL-1β, relative inhibition of cytokine release ([1]; CBD 10 mg/kg): 0.34
IL-6, relative inhibition of cytokine release ([1]; CBD 10 mg/kg): 0.14
IL-12(p70), relative inhibition of cytokine release ([1]; CBD 10 mg/kg): 0.00
TNF-α, relative inhibition of cytokine release ([1]; CBD 10 mg/kg): 0.00
Relative inhibition of IL-6 release in vivo ([1]; CBD 25 mg/kg alone): 0.03
IL-6, relative inhibition of cytokine release ([1]; CBD 25 mg/kg): 0.03
Relative reduction in white blood cell counts: Neutrophil [2]: 0.25
Relative reduction in white blood cell counts: WBC [2]: 0.27
Relative reduction in lesion score ([3]; CBD 1 mg/kg): 0.18
Relative reduction in lesion score [3, 4]: 0.29
Colon tissue histology (H&E, 100×), FIG. 3 (TNBS-induced colitis; CBD 1 mg/kg): inflammatory cell infiltration in submucosal edema
Relative reduction in Colon to body weight ratio (TNBS-induced colitis; CBD 1 mg/kg): 0.373
Relative reduction in Total Colitis Index (TNBS-induced colitis; CBD 1 mg/kg): 0.25
Macroscopic damage score, relative reduction (TNBS-induced colitis; CBD 1 mg/kg): 0.10
Stool consistency score, relative reduction (TNBS-induced colitis; CBD 1 mg/kg): 0.17
MPO, relative reduction (TNBS-induced colitis; CBD 1 mg/kg): 0.34
